The structures appear in SMILES notation.

The assay deals with T1, human glucagon receptor (Homo sapiens, UniProt P47871).
T1 construct: expressed in transfected cells; host or cells: CHO-K1 cells, stably transfected
T1 sequence (P47871 26-477): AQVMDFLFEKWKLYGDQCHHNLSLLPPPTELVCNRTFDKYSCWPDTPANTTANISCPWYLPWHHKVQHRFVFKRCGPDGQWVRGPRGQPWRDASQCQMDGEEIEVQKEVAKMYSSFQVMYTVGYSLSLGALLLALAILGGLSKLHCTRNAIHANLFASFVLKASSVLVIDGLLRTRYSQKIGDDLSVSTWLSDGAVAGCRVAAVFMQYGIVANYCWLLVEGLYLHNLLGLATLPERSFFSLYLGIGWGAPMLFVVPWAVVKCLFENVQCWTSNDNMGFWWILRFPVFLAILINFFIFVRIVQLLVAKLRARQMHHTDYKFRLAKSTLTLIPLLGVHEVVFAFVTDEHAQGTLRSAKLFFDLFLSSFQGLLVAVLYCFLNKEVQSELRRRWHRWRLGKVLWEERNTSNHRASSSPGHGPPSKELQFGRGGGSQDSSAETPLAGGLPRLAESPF
In words: Glucagon cAMP assay (Cisbio cAMP detection). In kind it is cell-based. Here is the method:
The Cisbio cAMP detection assay is used to determine the ability of punitive glucagon antagonist to block glucagon induced cAMP production. Potential glucagon antagonists are re-suspended and diluted in 100% DMSO. Prior to use in the Glucagon cAMP assay 100×DMSO compound stocks are diluted 20× with DMEM-F12 media (Invitrogen) containing either 0.1% or 4% BSA. 2 uls of 5× compound stocks are spotted into the appropriate wells of low binding white solid bottom 384 well plates (Corning). 2 uls of 5% DMSO or known glucagon antagonist are added to each plate to define the assay window. CHOK1 cells stably transfected with the human glucagon receptor are removed from culture flasks with cell dissociation buffer. Cell pellets are re-suspended, at a concentration of 8.3e^5 cells/ml in DMEM-F12 with or without 4% BSA and 200 uM IBMX. 6 uls of cell suspensions are added to the assay plates. Plates are incubated for 20 min at room temperature prior to the addition of a 100 pM challenge dose of glucagon. On a separate plate glucagon dose response curves are run to determine the EC50 of glucagon. After a 30 min room temperature incubation the reaction is terminated by the addition of lysis buffer containing the cAMP detection reagents. Plates are incubated for an additional 60 min at room temperature prior to being read on the Perkin Elmer fluorescent plate reader. Raw is converted to nM of cAMP produced based on a cAMP standard curve. Converted data is then analyzed using the Pfizer data analysis program. IC50 values are determined from the generated sigmoidal dose response curves. Kb values are the calculated using a modified Cheng-Prusoff equation.
A general note: Changes in cAMP serve as a functional read-out for many G protein-coupled receptors.
In the case of `Cc1ccc(-c2ccc(C(CC(C)C)Nc3ccc(C(=O)NCCC(=O)O)cn3)cc2)cn1` (racemic) [Example 1.36, (+/−)-3-(6-(3-methyl-1-(4-(6-methylpyridin-3-yl)phenyl)butylamino)nicotinamido)propanoic acid], the Kb stood at 870 nM.
On to `CC(C)CC(Nc1ccc(C(=O)NCCC(=O)O)cn1)c1ccc(-c2ccccc2)cc1` (racemic) [Example 1.37], for which the Kb amounted to 220 nM.
For `CC(C)CC(Nc1ccc(C(=O)NCCC(=O)O)cn1)c1ccc(-c2ccccc2F)cc1` (racemic) [Example 1.38, (+/−)-3-(6-(1-(2′-fluorobiphenyl-4-yl)-3-methylbutylamino)nicotinamido)propanoic acid], the Kb came out at 600 nM.
In turn, `CC(C)CC(Nc1ccc(C(=O)NCCC(=O)O)cn1)c1ccc(-c2cccc(Cl)c2)cc1` (racemic) [Example 1.39, (+/−)-3-(6-(1-(3′-chlorobiphenyl-4-yl)-3-methylbutylamino)nicotinamido)propanoic acid] displayed a Kb of 110 nM.
Take `CC(C)CC(Nc1ccc(C(=O)NCCC(=O)O)cn1)c1ccc(-c2cccnc2)cc1` (racemic) [Example 1.40, (+/−)-3-(6-(3-methyl-1-(4-(pyridin-3-yl)phenyl)butylamino)nicotinamido)propanoic acid]: the Kb was found to be 4600 nM.
`CC(C)CC(Nc1ccc(C(=O)NCCC(=O)O)cn1)c1ccc(-c2cccc(F)c2)cc1` (racemic) [Example 1.41, (+/−)-3-(6-(1-(3′-fluorobiphenyl-4-yl)-3-methylbutylamino)nicotinamido)propanoic acid] yielded a Kb of 450 nM.
The figure for `Cc1ccccc1-c1ccc(C(CC(C)C)Nc2ccc(C(=O)NCCC(=O)O)cn2)cc1` (racemic) [Example 1.42, (+/−)-3-(6-(3-methyl-1-(2′-methylbiphenyl-4-yl)butylamino)nicotinamido)propanoic acid] is 780 nM.
As to `COc1ccccc1-c1ccc(C(CC(C)C)Nc2ccc(C(=O)NCCC(=O)O)cn2)cc1` (racemic) [Example 1.43, (+/−)-3-(6-(1-(2′-methoxybiphenyl-4-yl)-3-methylbutylamino)nicotinamido)propanoic acid], the Kb came to 190 nM.
The figure for `CC(C)CC(Nc1ccc(C(=O)NCCC(=O)O)cn1)c1ccc(-c2ccccc2Cl)cc1` (racemic) [Example 1.44, (+/−)-3-(6-(1-(2′-chlorobiphenyl-4-yl)-3-methylbutylamino)nicotinamido)propanoic acid] is 580 nM; for `CC(C)CC(Nc1ccc(C(=O)NCCC(=O)O)cn1)c1ccc(-c2ccc(C#N)cc2)cc1` (racemic) [Example 1.45, (+/−)-3-(6-(1-(4′-cyanobiphenyl-4-yl)-3-methylbutylamino)nicotinamido)propanoic acid] it is 620 nM; for `CCOc1ccc(-c2ccc(C(CC(C)C)Nc3ccc(C(=O)NCCC(=O)O)cn3)cc2)cc1` (racemic) [Example 1.46, (+/−)-3-(6-(1-(4′-ethoxybiphenyl-4-yl)-3-methylbutylamino)nicotinamido)propanoic acid] it is 92 nM.
`COc1cccc(-c2ccc(C(CC(C)C)Nc3ccc(C(=O)NCCC(=O)O)cn3)cc2)c1` (racemic) [Example 1.47, (+/−)-3-(6-(1-(3′-methoxybiphenyl-4-yl)-3-methylbutylamino)nicotinamido)propanoic acid] yielded a Kb of 180 nM.
Compound `Cc1cccc(C)c1-c1ccc(C(CC(C)C)Nc2ccc(C(=O)NCCC(=O)O)cn2)cc1` (racemic) [Example 1.48, (+/−)-3-(6-(1-(2′,6′-dimethylbiphenyl-4-yl)-3-methylbutylamino)nicotinamido)propanoic acid] registered a Kb of 1200 nM.
The value for `Cc1ccc(C)c(-c2ccc(C(CC(C)C)Nc3ccc(C(=O)NCCC(=O)O)cn3)cc2)c1` (racemic) [Example 1.49, (+/−)-3-(6-(1-(2′,5′-dimethylbiphenyl-4-yl)-3-methylbutylamino)nicotinamido)propanoic acid] was 750 nM; that for `Cc1ccc(-c2ccc(C(CC(C)C)Nc3ccc(C(=O)NCCC(=O)O)cn3)cc2)cc1` (racemic) [Example 1.50, (+/−)-3-(6-(3-methyl-1-(4′-methylbiphenyl-4-yl)butylamino)nicotinamido)propanoic acid] was 70 nM.
The value for `CC(C)CC(Nc1ccc(C(=O)NCCC(=O)O)cn1)c1ccc(-c2ccc(F)cc2)cc1` (racemic) [Example 1.51, (+/−)-3-(6-(1-(4′-fluorobiphenyl-4-yl)-3-methylbutylamino)nicotinamido)propanoic acid] was 160 nM.
For `COc1ccc(-c2ccc(C(CC(C)C)Nc3ccc(C(=O)NCCC(=O)O)cn3)cc2)cc1` (racemic) [Example 1.52, (+/−)-3-(6-(1-(4′-methoxybiphenyl-4-yl)-3-methylbutylamino)nicotinamido)propanoic acid], the Kb came to 120 nM.
Consider `CC(C)CC(Nc1ccc(C(=O)NCCC(=O)O)cn1)c1ccc(-c2ccc(Cl)cc2)cc1` (racemic) [Example 1.53, (+/−)-3-(6-(1-(4′-chlorobiphenyl-4-yl)-3-methylbutylamino)nicotinamido)propanoic acid], for which the Kb was found to be 46 nM.
As to `CCc1ccc(-c2ccc(C(CC(C)C)Nc3ccc(C(=O)NCCC(=O)O)cn3)cc2)cc1` (racemic) [Example 1.54, (+/−)-3-(6-(1-(4′-ethylbiphenyl-4-yl)-3-methylbutylamino)nicotinamido)propanoic acid], the Kb was 230 nM.
As to `CC(C)CC(Nc1ccc(C(=O)NCCC(=O)O)cn1)c1ccc(-c2ccccn2)cc1` (racemic) [Example 1.55, (+/−)-3-(6-(3-methyl-1-(4-(68yridine-2-yl)phenyl)butylamino)nicotinamido)propanoic acid], the Kb stood at 4800 nM.
With `CC(C)CC(Nc1ccc(C(=O)NCCC(=O)O)cn1)c1ccc(-c2ccc(C(=O)N(C)C)cc2)cc1` (racemic) [Example 1.56, (+/−)-3-(6-(1-(4′-(dimethylcarbamoyl)biphenyl-4-yl)-3-methylbutylamino)nicotinamido)propanoic acid], the Kb was 5000 nM.
Regarding `CC(C)CC(Nc1ccc(C(=O)NCCC(=O)O)cn1)c1ccc(-c2ccc(C(C)C)cc2)cc1` (racemic) [Example 1.57, (+/−)-3-(6-(1-(4′-isopropylbiphenyl-4-yl)-3-methylbutylamino)nicotinamido)propanoic acid], the Kb worked out at 120 nM.
Turning to `CC(C)CC(Nc1ccc(C(=O)NCCC(=O)O)cn1)c1ccc(-c2ccc(OC(F)(F)F)cc2)cc1` (racemic) [Example 1.58, (+/−)-3-(6-(3-methyl-1-(4′-(trifluoromethoxy)biphenyl-4-yl)butylamino)nicotinamido)propanoic acid], the Kb was determined as 120 nM.
The value for `CC(C)CC(Nc1ccc(C(=O)NCCC(=O)O)cn1)c1ccc(-c2ccc(S(C)(=O)=O)cc2)cc1` (racemic) [Example 1.59, (+/−)-3-(6-(3-methyl-1-(4′-(methylsulfonyl)biphenyl-4-yl)butylamino)nicotinamido)propanoic acid] was 1500 nM; that for `CC(C)CC(Nc1ccc(C(=O)NCCC(=O)O)cn1)c1ccc(-c2ccc(C(F)(F)F)nc2)cc1` (racemic) [Example 1.60, (+/−)-3-(6-(3-methyl-1-(4-(6-(trifluoromethyl)pyridin-3-yl)phenyl)butylamino)nicotinamido)propanoic acid] was 280 nM.
In the case of `Cc1cc(NC(CC(C)C)c2ccc(C(=O)NCCC(=O)O)cn2)cc(C)c1-c1ccc(C(F)(F)F)cc1` (racemic) [Example 2.1, (+/−)-3-(6-(1-(2,6-dimethyl-4′-(trifluoromethyl)biphenyl-4-ylamino)-3-methylbutyl)nicotinamido)propanoic acid], the Kb worked out at 38 nM.
`CC(C)CC(Nc1ccc(-c2ccc(C(F)(F)F)cc2)cc1)c1ccc(C(=O)NCCC(=O)O)cn1` (racemic) [Example 2.4, (+/−)-3-(6-(3-methyl-1-(4′-(trifluoromethyl)biphenyl-4-ylamino)butyl)nicotinamido)propanoic acid] came in with a Kb of 300 nM.
Turning to `CC(C)CC(Nc1ccc(-c2ccc(C(F)(F)F)cc2)nc1)c1ccc(C(=O)NCCC(=O)O)cn1` (racemic) [Example 2.7, (+/−)-3-(6-(3-methyl-1-(6-(4-(trifluoromethyl)phenyl)pyridin-3-ylamino)butyl)nicotinamido)propanoic acid], the Kb was found to be 280 nM.
`Cc1cc(NC(CC(C)C)c2ccc(C(=O)NCCC(=O)O)cn2)cnc1-c1ccc(C(F)(F)F)cc1` (racemic) [Example 2.8, (+/−)-3-(6-(3-methyl-1-(5-methyl-6-(4-(trifluoromethyl)phenyl)pyridin-3-ylamino)butyl)nicotinamido)propanoic acid]: the Kb came to 130 nM.
With `CCCC(Nc1cnc(-c2ccc(C(F)(F)F)cc2)c(C)c1)c1ccc(C(=O)NCCC(=O)O)cn1` (racemic) [Example 2.9, (+/−)-3-(6-(1-(5-methyl-6-(4-(trifluoromethyl)phenyl)pyridin-3-ylamino)butyl)nicotinamido)propanoic acid], the Kb is 820 nM.
The figure for `CC(Nc1ccc(-c2ccc(C(F)(F)F)cc2)cc1)c1ccc(C(=O)NCCC(=O)O)cn1` (racemic) [Example 2.10, (+/−)-3-(6-(1-(4′-(trifluoromethyl)biphenyl-4-ylamino)ethyl)nicotinamido)propanoic acid] is 1700 nM.

Values taken from patent publication US8809342B2, “Glucagon receptor modulators” (Pfizer Inc., priority 2010, dated 2014).
